Assay results: patent US20230382923A1, “FUSED TETRACYCLIC QUINAZOLINE DERIVATIVES AS INHIBITORS OF ERBB2” (EnLiven Therapeutics, Inc., priority 2021, published 2023)
Where two headings read alike, the source gives them in different places.

How the values were obtained:
Ba/F3 ERBB2 YVMA = assay: Cell viability assay (CellTiter Glo, 72 hours); type: cell-based, mouse; conditions: Mus musculus, BaF3, 72 h
Experimental: Cells were treated with compounds, and cell viability was measured as a metric of kinase inhibition.
BT-474, A431, MDA-MB-175VII, NCI-H1781, MCF7, and Ba/F3 cell lines were tested. The Ba/F3 cell line is IL-3-dependent mouse cell line derived from the C3H mouse strain. Ba/F3 cell lines were engineered to express human ERBB2 or EGFR kinases, rendering the cells IL-3 independent. The lines were generated via retroviral transduction utilizing a Moloney murine leukemia virus (MMLV) promoter, and constructs are stably integrated into the cell genome. The sequences of the ERBB2 and EGFR genes used were NCBI Reference Sequences NM_004448.3 and NM_005228.3, respectively.
BT-474, A431, MDA-MB-175VII, NCI-H1781 and MCF7 cells were grown in the appropriate growth medium as described in Table B2 below, and harvested at 50-80% confluence. BT-474, A431, MDA-MB-175VII, NCI-H1781 and MCF7 cells were counted and seeded at 2,000 or 1,500 cells per well in 384-well tissue culture plates (see Table B2). Similarly, Ba/F3 cell lines engineered to express EGFR, ERBB2, or ERBB2 mutants were grown, harvested, counted and seeded at 3000 cells per well in 96-well plates. A subset of wells contained media only (low control, “LC”).
Table B1 provides the growth media and number of cells seeded per well for the each cell line.
Compounds were dissolved in DMSO and serially diluted. Serially-diluted compound or a DMSO only control (high control, “HC”) was added to the plated cells in each well. Compounds were tested at concentrations of about 10 μM to 0.51 nM, using three-fold dilutions. The final proportion of DMSO never exceeded 0.1%.
Plates were placed in a 37° C., 5% CO2 incubator for 72 hours. Plates were then removed from the incubator and equilibrated for 15 minutes at room temperature. 40 μl of CellTiter Glo reagent (Promega) was added to measure the relative level of metabolically active cells by quantifying intracellular ATP concentrations. Plates were incubated for 30 minutes at room temperature, and luminescence was measured. Percent viability was normalized to a vehicle control only using the following formula: % viability=100×(LumSample−LumLC)/(LumHC−LumLC). Graphical curves were fitted using a nonlinear regression model with a sigmoidal dose response.

[1] = molecular target: phosphorylated ERBB2 (pERBB2) (Homo sapiens (Human), UniProt P04626); assay: Detection of phosphorylated ERBB2 (pERBB2) by ELISA in BT-474 cells; type: cell-based; conditions: four hours incubation with compound
phosphorylated ERBB2 (pERBB2), sequence (P04626 23-1255): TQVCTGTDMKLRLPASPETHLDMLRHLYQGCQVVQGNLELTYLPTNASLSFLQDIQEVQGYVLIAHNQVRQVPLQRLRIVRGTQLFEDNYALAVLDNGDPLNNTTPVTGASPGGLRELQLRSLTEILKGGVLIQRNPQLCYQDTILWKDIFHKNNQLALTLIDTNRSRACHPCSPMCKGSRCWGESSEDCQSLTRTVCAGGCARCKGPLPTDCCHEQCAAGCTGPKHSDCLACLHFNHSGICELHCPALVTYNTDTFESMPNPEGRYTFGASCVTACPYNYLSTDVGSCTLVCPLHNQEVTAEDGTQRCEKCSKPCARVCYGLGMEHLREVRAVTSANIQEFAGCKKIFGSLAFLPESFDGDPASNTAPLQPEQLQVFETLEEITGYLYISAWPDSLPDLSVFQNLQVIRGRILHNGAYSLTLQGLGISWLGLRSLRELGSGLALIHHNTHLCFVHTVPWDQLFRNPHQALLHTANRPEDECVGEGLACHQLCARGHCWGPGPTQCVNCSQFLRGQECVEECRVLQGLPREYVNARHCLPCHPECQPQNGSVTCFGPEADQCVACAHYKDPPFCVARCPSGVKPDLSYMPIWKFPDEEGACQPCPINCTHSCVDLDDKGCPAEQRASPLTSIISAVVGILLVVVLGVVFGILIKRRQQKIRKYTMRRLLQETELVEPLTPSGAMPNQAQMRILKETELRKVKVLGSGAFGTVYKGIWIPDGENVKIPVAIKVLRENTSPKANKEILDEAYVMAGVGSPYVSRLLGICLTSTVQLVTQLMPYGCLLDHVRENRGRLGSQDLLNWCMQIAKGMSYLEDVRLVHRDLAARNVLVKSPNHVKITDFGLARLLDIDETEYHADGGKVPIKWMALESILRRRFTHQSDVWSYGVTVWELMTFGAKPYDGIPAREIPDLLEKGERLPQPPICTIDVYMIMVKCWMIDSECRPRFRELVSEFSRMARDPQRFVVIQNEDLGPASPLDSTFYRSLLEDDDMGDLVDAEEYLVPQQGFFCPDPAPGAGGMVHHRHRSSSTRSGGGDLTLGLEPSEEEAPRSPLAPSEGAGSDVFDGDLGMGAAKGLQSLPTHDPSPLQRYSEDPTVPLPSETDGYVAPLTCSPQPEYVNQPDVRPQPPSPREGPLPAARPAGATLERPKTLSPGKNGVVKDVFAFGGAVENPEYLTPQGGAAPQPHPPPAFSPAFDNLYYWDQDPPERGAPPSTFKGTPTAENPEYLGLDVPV
In short: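 BT-474 cells were exposed to serially diluted compounds for 4 h at 37 °C, then lysed. Phospho-ERBB2 in lysates was captured by ELISA and detected with an HRP anti-phosphotyrosine antibody and TMB.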

[2] = molecular target: phosphorylated EGFR (pEGFR) (Homo sapiens (Human), UniProt P00533); assay: Detection of phosphorylated EGFR (pEGFR) by AlphaLISA in A431 cells; type: cell-based; conditions: A431 cells (10% FBS), 4 hours incubation, EGF 30 ng/mL for 10 minutes
phosphorylated EGFR (pEGFR), sequence (P00533 25-1210): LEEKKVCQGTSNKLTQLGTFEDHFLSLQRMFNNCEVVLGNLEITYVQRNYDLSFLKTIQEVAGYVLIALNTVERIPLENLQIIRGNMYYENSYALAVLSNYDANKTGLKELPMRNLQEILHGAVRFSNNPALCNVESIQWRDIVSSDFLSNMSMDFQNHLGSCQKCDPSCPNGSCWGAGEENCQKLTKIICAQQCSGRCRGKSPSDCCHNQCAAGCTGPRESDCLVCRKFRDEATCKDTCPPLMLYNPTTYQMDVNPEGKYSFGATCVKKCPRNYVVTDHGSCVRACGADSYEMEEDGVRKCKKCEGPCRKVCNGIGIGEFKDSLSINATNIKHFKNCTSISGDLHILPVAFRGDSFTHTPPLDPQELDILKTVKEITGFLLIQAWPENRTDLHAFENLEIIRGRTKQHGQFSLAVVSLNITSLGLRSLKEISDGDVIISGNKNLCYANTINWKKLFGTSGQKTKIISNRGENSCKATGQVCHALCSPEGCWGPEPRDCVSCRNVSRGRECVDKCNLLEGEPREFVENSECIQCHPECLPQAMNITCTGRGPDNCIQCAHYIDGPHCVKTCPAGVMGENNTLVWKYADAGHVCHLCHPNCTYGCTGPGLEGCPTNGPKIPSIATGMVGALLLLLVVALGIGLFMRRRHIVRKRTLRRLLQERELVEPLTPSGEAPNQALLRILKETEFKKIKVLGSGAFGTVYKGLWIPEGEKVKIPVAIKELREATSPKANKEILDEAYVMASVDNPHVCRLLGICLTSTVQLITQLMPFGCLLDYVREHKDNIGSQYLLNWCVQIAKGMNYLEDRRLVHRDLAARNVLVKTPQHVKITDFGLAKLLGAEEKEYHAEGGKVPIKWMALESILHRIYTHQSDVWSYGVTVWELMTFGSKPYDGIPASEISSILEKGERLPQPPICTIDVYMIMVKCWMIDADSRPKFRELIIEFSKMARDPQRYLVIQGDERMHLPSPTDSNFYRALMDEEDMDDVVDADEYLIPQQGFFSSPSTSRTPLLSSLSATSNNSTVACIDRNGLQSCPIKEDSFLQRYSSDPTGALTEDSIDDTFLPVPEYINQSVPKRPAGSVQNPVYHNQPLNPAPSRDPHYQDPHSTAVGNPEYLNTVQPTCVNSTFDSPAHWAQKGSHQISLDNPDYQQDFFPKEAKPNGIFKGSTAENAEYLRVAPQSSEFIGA
In short: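 A431 cells in 10% FBS exposed to compound for 4 h at 37 °C, then stimulated 10 min with 30 ng/mL EGF. Lysates assayed for phospho-EGFR by AlphaLISA. % inhibition relative to DMSO and staurosporine controls; IC50 from four-parameter curve fit.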

[3] = read-out: Ba/F3 ERBB2 YVMA, IC50, nM

SMILES	IC50 (Ba/F3 ERBB2 YVMA; Ba/F3 cells engineered to express human ERBB2 YVMA mutant, 72 hours, CellTiter Glo viability, read-out: Ba/F3 ERBB2 YVMA, IC50)	IC50 [1]	IC50 [2]	IC50 (Ba/F3 ERBB2 YVMA; [3])
CC#CC(=O)N1CCN2CC1COc1cc3ncnc(Nc4ccc(Oc5ccn6ncnc6c5)c(C)c4)c3cc12 (stereo in doubt) [Compound 17, 1-((10R)-4-((4-([1,2,4]triazolo[1,5-a]pyridin-7-yloxy)-3-methylphenyl)amino)-7,8,10,11-tetrahydro-9H-6,10-methano[1,4,7]oxadiazonino[3,2-g]quinazolin-9-yl)but-2-yn-1-one]	> 500 nM	1050 nM	> 10000 nM	–
Cc1cc(Nc2ncnc3cc4c(nc23)N2CCN(C(=O)/C=C/CN3CCC3)C(CO4)C2)ccc1Oc1ccn2ncnc2c1 (stereo in doubt) [Compound 26, (E)-1-((10S)-4-((4-([1,2,4]triazolo[1,5-a]pyridin-7-yloxy)-3-methylphenyl)amino)-7,8,10,11-tetrahydro-9H-6,10-methanopyrimido[4′,5′:5,6]pyrido[3,2-b][1,4,7]oxadiazonin-9-yl)-4-(azetidin-1-yl)but-2-en-1-one]	–	41.1 nM	> 10000 nM	24.9 nM
C=CC(=O)N1CCN2CC1COc1cc3ncnc(Nc4ccc(Oc5ccc(C)nc5)c(C)c4)c3nc12 (stereo in doubt) [Compound 20, 1-((10S)-4-((3-methyl-4-((6-methylpyridin-3-yl)oxy)phenyl)amino)-7,8,10,11-tetrahydro-9H-6,10-methanopyrimido[4′,5′:5,6]pyrido[3,2-b][1,4,7]oxadiazonin-9-yl)prop-2-en-1-one]	–	21.1 nM	192 nM	5.28 nM
C=CC(=O)N1CCN2CC1COc1cc3ncnc(Nc4ccc(Oc5ccn6ccnc6c5)c(C)c4)c3nc12 (stereo in doubt) [Compound 33, 1-((10S)-4-((4-(imidazo[1,2-a]pyridin-7-yloxy)-3-methylphenyl)amino)-7,8,10,11-tetrahydro-9H-6,10-methanopyrimido[4′,5′:5,6]pyrido[3,2-b][1,4,7]oxadiazonin-9-yl)prop-2-en-1-one]	–	16.8 nM	164 nM	12 nM
[2H]C([2H])([2H])N(C/C=C/C(=O)N1CCN2CC1COc1cc3ncnc(Nc4ccc(Oc5ccn6ncnc6c5)c(C)c4)c3nc12)C([2H])([2H])[2H] (stereo in doubt) [Compound 36, (E)-1-((10S)-4-((4-([1,2,4]triazolo[1,5-a]pyridin-7-yloxy)-3-methylphenyl)amino)-7,8,10,11-tetrahydro-9H-6,10-methanopyrimido[4′,5′:5,6]pyrido[3,2-b][1,4,7]oxadiazonin-9-yl)-4-(bis(methyl-d3)amino)but-2-en-1-one formic acid]	–	9.92 nM	1620 nM	6.19 nM
[2H]C([2H])([2H])N(C/C=C/C(=O)N1CCN2CC1COc1cc3ncnc(Nc4cc(C)c(Oc5ccn6ncnc6c5)cc4F)c3nc12)C([2H])([2H])[2H] (stereo in doubt) [Compound 46, (E)-1-((10S)-4-((4-([1,2,4]triazolo[1,5-a]pyridin-7-yloxy)-2-fluoro-5-methylphenyl)amino)-7,8,10,11-tetrahydro-9H-6,10-methanopyrimido[4′,5′:5,6]pyrido[3,2-b][1,4,7]oxadiazonin-9-yl)-4-(bis(methyl-d3)amino)but-2-en-1-one]	–	6.84 nM	2470 nM	7.04 nM
C=CC(=O)N1CCN2CC1COc1cc3ncnc(Nc4ccc(Oc5ccc6c(c5)ncn6C)c(C)c4)c3cc12 (stereo in doubt) [Compound 3, 1-((10S)-4-((3-methyl-4-((1-methyl-1H-benzo[d]imidazol-5-yl)oxy)phenyl)amino)-7,8,10,11-tetrahydro-9H-6,10-methano[1,4,7]oxadiazonino[3,2-g]quinazolin-9-yl)prop-2-en-1-one]	–	28.3 nM	1470 nM	18 nM
C=CC(=O)N1CCN2CC1COc1cc3ncnc(Nc4ccc(Oc5ccc(CC)nc5)c(C)c4)c3nc12 (stereo in doubt) [Compound 22, 1-((10S)-4-((4-((6-ethylpyridin-3-yl)oxy)-3-methylphenyl)amino)-7,8,10,11-tetrahydro-9H-6,10-methanopyrimido[4′,5′:5,6]pyrido[3,2-b][1,4,7]oxadiazonin-9-yl)prop-2-en-1-one]	–	70 nM	684 nM	56.1 nM
